# Legend:
# [1] = system: fungal strains (Candida spp., Cryptococcus spp., Aspergillus spp., Fusarium spp.); assay: MIC determination, summary statements over the strain panel; assay type: cell-based; conditions: for antifungal activity: Aspergillus spp., Fusarium spp. and most of the non-albicans Candida strains; for overall assessment as antifungals: panel of twenty fungal strains (Table 1)
# [2] = system: C. auris AR Bank # 0390 (strain L); assay: MIC determination (broth microdilution); assay type: cell-based, Candida auris; conditions: strain L = C. auris AR Bank # 0390; MIC-0; 48 h (CAS read at 24 h); Table 1 row printed without letter, below L; also in Table 2
# [3] = system: A. flavus ATCC MYA-3631 (strain S); assay: MIC determination (broth microdilution); assay type: cell-based, Aspergillus flavus; conditions: strain S = A. flavus ATCC MYA-3631; MIC-0; 72 h at 35° C.
# [4] = system: C. neoformans CN1 (strain N); assay: MIC determination (broth microdilution); assay type: cell-based, Cryptococcus neoformans; conditions: MIC-0, 72 h at 35° C.
# [5] = system: C. parapsilosis ATCC 22019 (strain J); assay: MIC determination (broth microdilution); assay type: cell-based; conditions: strain J = C. parapsilosis ATCC 22019; MIC-0; 48 h; listed as printed beside letter K
# [6] = system: C. albicans ATCC MYA-2876(S) (strain E); assay: MIC determination (broth microdilution); assay type: cell-based, Candida albicans; conditions: strain E = C. albicans ATCC MYA-2876(S); MIC-0; 48 h; listed as printed beside letter F
# [7] = system: C. albicans ATCC 64124(R) (strain F); assay type: cell-based, Candida albicans; conditions: strain F = C. albicans ATCC 64124(R); MIC-0; 48 h; listed as printed beside letter G
# [8] = system: C. neoformans ATCC MYA-85 (strain M); assay: MIC determination (broth microdilution); assay type: cell-based, Cryptococcus neoformans; conditions: strain M = C. neoformans ATCC MYA-85; MIC-0; 72 h at 35° C.
# [9] = system: C. albicans ATCC 10231(R) (strain B); assay type: cell-based, Candida albicans
# [10] = system: C. neoformans CN2 (strain O); assay: MIC determination (broth microdilution); assay type: cell-based, Cryptococcus neoformans; conditions: MIC-0, 72 h at 35° C.
# [11] = system: A. nidulans ATCC 38163 (strain Q); assay: MIC determination (broth microdilution); assay type: cell-based, Aspergillus nidulans; conditions: strain Q = A. nidulans ATCC 38163; MIC-0; 72 h at 35° C.
# [12] = system: C. albicans ATCC MYA-1237(R) (strain C); assay type: cell-based, Candida albicans; conditions: strain C = C. albicans ATCC MYA-1237(R); MIC-0; 48 h; listed as printed beside letter D
# [13] = system: C. albicans ATCC 90819(R) (strain G); assay type: cell-based, Candida albicans; conditions: strain G = C. albicans ATCC 90819(R); MIC-0; 48 h; listed as printed without letter, below G
# [14] = system: C. albicans ATCC MYA-2310(S) (strain D); assay: MIC determination (broth microdilution); assay type: cell-based, Candida albicans; conditions: strain D = C. albicans ATCC MYA-2310(S); MIC-0; 48 h; listed as printed beside letter E
# [15] = system: C. albicans ATCC MYA-1003(R) (strain A); assay type: cell-based, Candida albicans; conditions: strain A = C. albicans ATCC MYA-1003(R); MIC-0; 48 h at 35° C.
# [16] = system: A. terreus ATCC MYA-3633 (strain R); assay type: cell-based, Aspergillus terreus; conditions: strain R = A. terreus ATCC MYA-3633; MIC-0; 72 h at 35° C.
# [17] = system: C. auris AR Bank # 0384 (strain K); assay: MIC determination (broth microdilution); assay type: cell-based, Candida auris; conditions: strain K = C. auris AR Bank # 0384; MIC-0; 48 h (CAS read at 24 h); Table 1; also in Table 2
# [18] = system: C. neoformans CN3 (strain P); assay: MIC determination (broth microdilution); assay type: cell-based, Cryptococcus neoformans; conditions: MIC-0, 72 h at 35° C.
# [19] = system: C. glabrata ATCC 2001 (strain H); assay: MIC determination (broth microdilution); assay type: cell-based, Candida glabrata; conditions: strain H = C. glabrata ATCC 2001; MIC-0; 48 h at 35° C.
# [20] = system: C. krusei ATCC 6258 (strain I); assay: MIC determination (broth microdilution); assay type: cell-based; conditions: strain I = C. krusei ATCC 6258; MIC-0; 48 h; listed as split over r16 and r17 (r17 printed beside letter J)
# [21] = system: F. graminearum 053 (strain T); assay type: cell-based, Fusarium graminearum; conditions: strain T = F. graminearum 053; MIC-0; room temperature, 5 days
smiles,measurement,setting,value
"[Cl-].c1ccc([P+]2(c3ccccc3)c3ccccc3[P+](c3ccccc3)(c3ccccc3)[Au-3]23[P+](c2ccccc2)(c2ccccc2)c2ccccc2[P+]3(c2ccccc2)c2ccccc2)cc1 [Compound 2, bis-[1,2-bis(diphenylphosphino)benzene]gold(1)]",antifungal activity,[1],inactive
same,overall assessment as antifungals,[1],poor antifungals
same,MIC,[2],> 31.3 µg/mL
same,MIC (in parentheses),[2],> 27.8 µM
same,MIC,[3],> 31.3 µg/mL
same,MIC (in parentheses),[3],> 27.8 µM
same,MIC,[4],3.9 µg/mL
same,MIC (in parentheses),[4],3.5 µM
same,MIC,[5],7.8 µg/mL
same,MIC (in parentheses),[5],6.9 µM
same,MIC,[6],7.8 µg/mL
same,MIC (in parentheses),[6],6.9 µM
same,MIC,[7],7.8 µg/mL
same,MIC (in parentheses),[7],6.9 µM
same,MIC,[8],3.9 µg/mL
same,MIC (in parentheses),[8],3.5 µM
same,MIC,[9],15.6 (13.9) μg/mL
same,MIC (in parentheses),[9],15.6 (13.9) μM
same,MIC,[10],3.9 µg/mL
same,MIC (in parentheses),[10],3.5 µM
same,MIC,[11],> 31.3 µg/mL
same,MIC (in parentheses),[11],> 27.8 µM
same,MIC,[12],15.6 µg/mL
same,MIC (in parentheses),[12],13.9 µM
same,MIC,[13],7.8 µg/mL
same,MIC (in parentheses),[13],6.9 µM
same,MIC,[14],7.8 µg/mL
same,MIC (in parentheses),[14],6.9 µM
same,MIC,[15],15.6 µg/mL
same,MIC (in parentheses),[15],13.9 µM
same,MIC,[16],> 31.3 µg/mL
same,MIC (in parentheses),[16],> 27.8 µM
same,MIC,[17],> 31.3 µg/mL
same,MIC (in parentheses),[17],> 27.8 µM
same,MIC,[18],3.9 µg/mL
same,MIC (in parentheses),[18],3.5 µM
same,MIC,[19],7.8 µg/mL
same,MIC (in parentheses),[19],6.9 µM
same,MIC,[20],15.6 µg/mL
same,MIC (in parentheses),[20],13.9 µM
same,MIC,[21],31.3 µg/mL
same,MIC (in parentheses),[21],27.8 µM
"[Cl][Au-][P+](c1ccccc1)(c1ccccc1)c1ccccc1[P+]([Au-][Cl])(c1ccccc1)c1ccccc1 [Compound 1, [1,2-bis(diphenylphosphino)benzene]digold(I)]",antifungal activity,[1],inactive
same,overall assessment as antifungals,[1],poor antifungals
same,MIC,[2],> 31.3 µg/mL
same,MIC (in parentheses),[2],> 34.3 µM
same,MIC,[3],> 31.3 µg/mL
same,MIC (in parentheses),[3],> 34.3 µM
same,MIC,[4],3.9 µg/mL
same,MIC (in parentheses),[4],4.3 µM
same,MIC,[5],15.6 µg/mL
same,MIC (in parentheses),[5],17.1 µM
same,MIC,[6],7.8 µg/mL
same,MIC (in parentheses),[6],8.6 µM
same,MIC,[7],7.8 µg/mL
same,MIC (in parentheses),[7],8.6 µM
same,MIC,[8],0.98 µg/mL
same,MIC (in parentheses),[8],1.1 µM
same,MIC,[9],15.6 (17.1) μg/mL
same,MIC (in parentheses),[9],15.6 (17.1) μM
same,MIC,[10],3.9 µg/mL
same,MIC (in parentheses),[10],4.3 µM
same,MIC,[11],> 31.3 µg/mL
same,MIC (in parentheses),[11],> 34.3 µM
same,MIC,[12],0.49 µg/mL
same,MIC (in parentheses),[12],5.4 µM
same,MIC,[13],7.8 µg/mL
same,MIC (in parentheses),[13],8.6 µM
same,MIC,[14],7.8 µg/mL
same,MIC (in parentheses),[14],8.6 µM
same,MIC,[15],3.9 µg/mL
same,MIC (in parentheses),[15],4.3 µM
same,MIC,[16],> 31.3 µg/mL
same,MIC (in parentheses),[16],> 34.3 µM
same,MIC,[17],> 31.3 µg/mL
same,MIC (in parentheses),[17],> 34.3 µM
same,MIC,[18],15.6 µg/mL
same,MIC (in parentheses),[18],17.1 µM
same,MIC,[19],7.8 µg/mL
same,MIC (in parentheses),[19],8.6 µM
same,MIC,[20],15.6 µg/mL
same,MIC (in parentheses),[20],17.1 µM
same,MIC,[21],> 31.3 µg/mL
same,MIC (in parentheses),[21],> 34.3 µM

# — patent publication US11564394B2, “Distorted gold (I)-phosphine complexes and methods for use as antifungal agents” (University of Kentucky Research Foundation, priority 2019, dated 2023)
